Among the data in ChEMBL document CHEMBL4673271, “Denigrins and Dactylpyrroles, Arylpyrrole Alkaloids from a Dactylia sp. Marine Sponge” (J Nat Prod, 2020) are IC50 and Activity values, retold here.

Holding throughout (format): cell-based
Series [1] can be described thus: Inhibition of PAX3-FOXO1 (unknown origin) stably transfected Rh4 cells co-expressing ALK-Luc after 24 hrs by SteadyLite luciferase assay. As to conditions: Homo sapiens, Rh4, 24 h.
Series [2] can be described thus: Inhibition of PAX3-FOXO1 (unknown origin) stably transfected Rh4 cells co-expressing CMV-Luc after 24 hrs by SteadyLite luciferase assay. As to conditions: Homo sapiens, Rh4, 24 h.
A short description of series [3]: Cytotoxicity against human Rh4 cells assessed as reduction in cell viability >=20 uM.

Starred links: 1 amine or outer side, 2 acyl side, 3 side chain; linkers in the order of their positions; H or OH if unused. Positions of bridges follow the written chain, without caps; N, C: chain ends. Non-standard residues stand in square brackets, D forms with d. Residues, ends and D or L forms follow the SMILES beside them. Chains are numbered I, II in the order given. Actinocin(1to9) = Cc1c2oc3c(C)ccc(C(=O)[*:2])c3nc-2c(C(=O)[*:1])c(N)c1=O; NMeV = CN[C@H](C(=O)O)C(C)C; Sar = CNCC(=O)O

With `Cc1c2oc3c(C)ccc(C(=O)N[C@@H]4C(=O)N[C@H](C(C)C)C(=O)N5CCC[C@H]5C(=O)N(C)CC(=O)N(C)[C@@H](C(C)C)C(=O)O[C@@H]4C)c3nc-2c(C(=O)N[C@@H]2C(=O)N[C@H](C(C)C)C(=O)N3CCC[C@H]3C(=O)N(C)CC(=O)N(C)[C@@H](C(C)C)C(=O)O[C@@H]2C)c(N)c1=O` [DACTINOMYCIN] (I: T[dV]P[Sar][NMeV] / II: T[dV]P[Sar][NMeV]; ester I:1-I:C, II:1-II:C; linker I:N-II:N via Actinocin(1to9)), the IC50 in series [1] and in series [2] was 0.001 µM throughout.
As for `O=C1C(c2ccc(O)cc2)=C2C(=C(c3ccc(O)cc3)C(=O)N2CCc2ccc(O)cc2)c2c1[nH]c1c(O)cccc21`, the IC50 in series [1] and in series [2] was 13 µM each time. The Activity result in series [3] is given as “Toxic”.
